In US8198311B2, “Modulators of glucocorticoid receptor, AP-1, and/or NF-κB activity and use thereof” (Bristol-Myers Squibb Company, priority 2006, dated 2012):
Like-named read-outs stand apart in the source and are kept apart here.

Experiments:
[1] = molecular target: T1, human full-length glucocorticoid receptor (Homo sapiens, UniProt P04150); experiment: Glucocorticoid Receptor Binding Assay (II), fluorescence polarization competitor kit (Fluormone GS1); details: cell lysate with recombinant human full-length GR
T1 construct: recombinantly expressed human full-length glucocorticoid receptor; purchased PanVera Co., Madison, Wis; P2816
T1 sequence (P04150 1-777): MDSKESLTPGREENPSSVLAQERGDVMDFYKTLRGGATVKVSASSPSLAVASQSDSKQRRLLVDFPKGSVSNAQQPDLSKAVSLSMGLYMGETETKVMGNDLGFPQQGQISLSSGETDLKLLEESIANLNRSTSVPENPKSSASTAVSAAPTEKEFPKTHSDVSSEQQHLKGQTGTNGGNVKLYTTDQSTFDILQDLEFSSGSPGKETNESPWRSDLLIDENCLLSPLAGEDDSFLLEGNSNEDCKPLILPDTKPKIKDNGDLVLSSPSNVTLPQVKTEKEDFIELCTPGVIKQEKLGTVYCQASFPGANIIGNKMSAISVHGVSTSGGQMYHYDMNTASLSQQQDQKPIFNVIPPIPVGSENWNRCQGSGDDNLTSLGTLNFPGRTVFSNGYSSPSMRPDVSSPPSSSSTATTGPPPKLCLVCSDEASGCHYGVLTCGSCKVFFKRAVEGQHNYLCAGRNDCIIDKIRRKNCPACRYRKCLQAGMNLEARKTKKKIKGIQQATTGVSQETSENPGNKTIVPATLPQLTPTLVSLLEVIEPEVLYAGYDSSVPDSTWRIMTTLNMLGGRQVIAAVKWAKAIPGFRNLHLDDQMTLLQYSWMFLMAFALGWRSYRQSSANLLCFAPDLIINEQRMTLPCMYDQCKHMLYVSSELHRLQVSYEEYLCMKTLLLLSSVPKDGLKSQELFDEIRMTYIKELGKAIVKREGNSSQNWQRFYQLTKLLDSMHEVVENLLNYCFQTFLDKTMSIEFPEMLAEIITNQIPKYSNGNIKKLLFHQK
Protocol: In order to measure the binding of compounds on the glucocorticoid receptor a commercially available kit was used (Glucocorticoid receptor competitor assay kit, PanVera Co., Madison, Wis., P2816). Briefly, a cell lysate containing recombinantly expressed human full-length glucocorticoid receptor was mixed with a fluorescently labeled glucocorticoid (1 nM Fluormone GS1) in the presence or absence of test compound. After one hour at room temperature, the fluorescence polarization (FP) of the samples were measured. […] Test molecules were analyzed in the concentration range from 2.4 nM to 40 microMolar.

[2] = tested on: AP-1 induced transcriptional activity; experiment: Cellular Transrepressional Assay (AP-1 luciferase reporter in A549 cells, PMA-activated); assay type: cell-based; details: pAP-1-Luc, 10 ng/ml PMA, read-out: AP-1 (EC50, nM) (Cellular Transrepression Assay)
Method in brief: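 A549 cells stably carrying a 7×AP-1-luciferase reporter, stimulated with 10 ng/ml PMA with or without compound (0.1 nM-40 μM) for 7 h. Luciferase luminescence read 10 min after reagent addition; repression is percentage decrease of PMA-alone signal, EC50 by curve fitting.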

SMILES | Ki [1] | EC50 ([2]; Homo sapiens, A549, 7 h) | EC50 ([2]; 7 hours)
CC(C)(C(c1ccccc1)c1ccc2c(cnn2-c2ccc(F)cc2)c1)C(C)(O)C(F)(F)F (mixture of isomers) [Example 128, 1,1,1-Trifluoro-4-(1-(4-fluorophenyl)-1H-indazol-5-yl)-2,3,3-trimethyl-4-phenylbutan-2-ol] | 16 nM | > 10000 nM | –
CC(C)CC(c1ccc2c(cnn2-c2ccc(F)cc2)c1)C(C)(C)CNS(=O)(=O)CC(F)(F)F (single isomer, unassigned) [Example 57A, 2,2,2-trifluoro-N-(3-(1-(4-fluorophenyl)-1H-indazol-5-yl)-2,2,5-trimethylhexyl)-ethanesulfonamide] | 59 nM | > 10000 nM | –
CC(C)CC(c1ccc2c(cnn2-c2ccc(F)cc2)c1)C(C)(C)CNS(=O)(=O)CC(F)(F)F (single isomer, unassigned) [Example 57B, 2,2,2-trifluoro-N-(3-(1-(4-fluorophenyl)-1H-indazol-5-yl)-2,2,5-trimethylhexyl)-ethanesulfonamide] | 15 nM | – | > 10000 nM
CC(C)CC(c1ccc2c(cnn2-c2ccc(F)cc2)c1)C(C)(C)CNC(=O)NCC(F)(F)F (single isomer, unassigned) [Example 58A, 1-(3-(1-(4-fluorophenyl)-1H-indazol-5-yl)-2,2,5-trimethylhexyl)-3-(2,2,2-trifluoroethyl)urea] | 14 nM | – | > 10000 nM
CC(C)CC(c1ccc2c(cnn2-c2ccc(F)cc2)c1)C(C)(C)CNC(=O)NCC(F)(F)F (single isomer, unassigned) [Example 58B, 1-(3-(1-(4-fluorophenyl)-1H-indazol-5-yl)-2,2,5-trimethylhexyl)-3-(2,2,2-trifluoroethyl)urea] | 8.8 nM | – | 106 nM
CC(C)CC(c1ccc2c(cnn2-c2ccc(F)cc2)c1)C(C)(C)CNC(=O)CC(F)(F)F (single isomer, unassigned) [Example 59B, 3,3,3-trifluoro-N-(3-(1-(4-fluorophenyl)-1H-indazol-5-yl)-2,2,5-trimethylhexyl)propanamide] | 9.3 nM | > 10000 nM | –
CC(C)(CNS(=O)(=O)CC(F)(F)F)C(c1ccccc1)c1ccc2[nH]ncc2c1 (stereo in doubt) [(R)-83, (S)-N-(3-(1H-indazol-5-yl)-2,2-dimethyl-3-phenylpropyl)-2,2,2-trifluoroethanesulfonamide] | 547 nM | > 10000 nM | –
CC(C)(CNC(=O)C(F)(F)F)[C@H](c1ccccc1)c1ccc2c(cnn2-c2ccc(F)cc2)c1 [(R)-16, (R)-2,2,2-trifluoro-N-(3-(1-(4-fluorophenyl)-1H-indazol-5-yl)-2,2-dimethyl-3-phenylpropyl)acetamide] | 7.4 nM | 61 nM | –
CC(C)(CNC(=O)CC(F)(F)F)[C@H](c1ccccc1)c1ccc2c(cnn2-c2ccc(F)cc2)c1 [(R)-17, (R)-3,3,3-trifluoro-N-(3-(1-(4-fluorophenyl)-1H-indazol-5-yl)-2,2-dimethyl-3-phenylpropyl)-propanamide] | 12 nM | 99 nM | –
CC(C)(CNC(=O)CC(F)(F)F)[C@H](c1ccccc1)c1ccc2[nH]ncc2c1 [(R)-82, (R)-N-(3-(1H-indazol-5-yl)-2,2-dimethyl-3-phenylpropyl)-3,3,3-trifluoropropanamide] | 628 nM | > 10000 nM | –
CC(C)(CNC(=O)CC(F)(F)F)[C@@H](c1ccccc1)c1ccc2[nH]ncc2c1 [(S)-82, (S)-N-(3-(1H-indazol-5-yl)-2,2-dimethyl-3-phenylpropyl)-3,3,3-trifluoropropanamide] | 39 nM | > 10000 nM | –
CC(C)(CNS(=O)(=O)CC(F)(F)F)[C@@H](c1ccccc1)c1ccc2[nH]ncc2c1 [(S)-83, (S)-N-(3-(1H-indazol-5-yl)-2,2-dimethyl-3-phenylpropyl)-2,2,2-trifluoroethanesulfonamide] | 34 nM | > 10000 nM | –
CC(C)(C)CC(=O)NCC(C)(C)[C@@H](c1ccccc1)c1ccc2c(cnn2-c2ccc(F)cc2)c1 [Example 1, (S)-N-(3-(1-(4-fluorophenyl)-1H-indazol-5-yl)-2,2-dimethyl-3-phenylpropyl)-3,3-dimethylbutanamide] | 8.3 nM | 1280 nM | –
CC(C)(CNS(C)(=O)=O)[C@@H](c1ccccc1)c1ccc2c(cnn2-c2ccc(F)cc2)c1 [Example 6, (S)-N-(3-(1-(4-fluorophenyl)-1H-indazol-5-yl)-2,2-dimethyl-3-phenylpropyl)methanesulfonamide] | 4.9 nM | 47 nM | –
CC(C)S(=O)(=O)NCC(C)(C)[C@@H](c1ccccc1)c1ccc2c(cnn2-c2ccc(F)cc2)c1 [Example 7, (S)-N-(3-(1-(4-fluorophenyl)-1H-indazol-5-yl)-2,2-dimethyl-3-phenylpropyl)propane-2-sulfonamide] | 6.1 nM | 139 nM | –
CC(C)(CNC(=O)C1(C(F)(F)F)CC1)[C@@H](c1ccccc1)c1ccc2c(cnn2-c2ccc(F)cc2)c1 [Example 10, (S)-N-(3-(1-(4-fluorophenyl)-1H-indazol-5-yl)-2,2-dimethyl-3-phenylpropyl)-1-(trifluoromethyl)cyclopropanecarboxamide] | 19 nM | 143 nM | –
CCS(=O)(=O)NCC(C)(C)[C@@H](c1ccccc1)c1ccc2c(cnn2-c2ccc(F)cc2)c1 [Example 11, (S)-N-(3-(1-(4-fluorophenyl)-1H-indazol-5-yl)-2,2-dimethyl-3-phenylpropyl)ethanesulfonamide] | 16 nM | 29 nM | –
CCCS(=O)(=O)NCC(C)(C)[C@@H](c1ccccc1)c1ccc2c(cnn2-c2ccc(F)cc2)c1 [Example 13, (S)-N-(3-(1-(4-fluorophenyl)-1H-indazol-5-yl)-2,2-dimethyl-3-phenylpropyl)propane-1-sulfonamide] | 19 nM | 181 nM | –
CC(C)(CNC(=O)C(F)(F)C(F)(F)F)[C@@H](c1ccccc1)c1ccc2c(cnn2-c2ccc(F)cc2)c1 [Example 19, (S)-2,2,3,3,3-pentafluoro-N-(3-(1-(4-fluorophenyl)-1H-indazol-5-yl)-2,2-dimethyl-3-phenylpropyl)propanamide] | 11 nM | > 10000 nM | –
CC(C)(CNC(=O)Cc1cccs1)[C@H](c1ccccc1)c1ccc2c(cnn2-c2ccc(F)cc2)c1 [Example 21, (R)-N-(3-(1-(4-fluorophenyl)-1H-indazol-5-yl)-2,2-dimethyl-3-phenylpropyl)-2-(thiophen-2-yl)acetamide] | 39 nM | 266 nM | –
CC(=O)NCC(C)(C)[C@H](c1ccccc1)c1ccc2c(cnn2-c2ccc(F)cc2)c1 [Example 22, (R)-N-(3-(1-(4-fluorophenyl)-1H-indazol-5-yl)-2,2-dimethyl-3-phenylpropyl)acetamide] | 17 nM | 679 nM | –
COC(=O)C(=O)NCC(C)(C)[C@H](c1ccccc1)c1ccc2c(cnn2-c2ccc(F)cc2)c1 [Example 23, (R)-methyl 2-(3-(1-(4-fluorophenyl)-1H-indazol-5-yl)-2,2-dimethyl-3-phenylpropylamino)-2-oxoacetate] | 62 nM | 5960 nM | –
CC(C)CC(c1ccc2c(cnn2-c2ccc(F)cc2)c1)C(C)(C)CNC(=O)N(C)C (stereo not drawn) [Example 65, 3-(3-(1-(4-fluorophenyl)-1H-indazol-5-yl)-2,2,5-trimethylhexyl)-1,1-dimethylurea] | 1.4 nM | – | –
